According to patent US11339156B2, “3-(1H-pyrazol-4-yl)pyridine allosteric modulators of the M4 muscarinic acetylcholine receptor” (Merck Sharp & Dohme Corp., priority 2017, dated 2022):

Biological target: T1, human M4 muscarinic acetylcholine receptor (Homo sapiens, UniProt P08173)
T1 construct: expressed in transfected cells
T1 sequence (P08173 1-479): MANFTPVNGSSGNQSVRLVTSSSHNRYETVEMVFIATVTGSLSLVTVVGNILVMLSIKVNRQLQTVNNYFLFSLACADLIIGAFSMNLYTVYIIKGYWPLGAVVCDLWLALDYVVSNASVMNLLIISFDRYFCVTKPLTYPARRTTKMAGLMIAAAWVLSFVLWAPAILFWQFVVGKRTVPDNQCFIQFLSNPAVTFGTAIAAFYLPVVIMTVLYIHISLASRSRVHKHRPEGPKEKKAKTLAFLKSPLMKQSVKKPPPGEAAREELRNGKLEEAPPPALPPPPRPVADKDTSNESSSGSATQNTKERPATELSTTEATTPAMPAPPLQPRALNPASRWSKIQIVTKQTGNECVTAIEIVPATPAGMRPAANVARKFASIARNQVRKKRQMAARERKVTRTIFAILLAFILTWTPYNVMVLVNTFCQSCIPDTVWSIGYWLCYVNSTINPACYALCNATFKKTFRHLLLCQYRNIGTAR
Assay: human FLIPR-based M4 PAM assay (CHO-K1 cells with human M4 receptor and Gαqi5, calcium dye fluorescence)
Type: cell-based
Conditions: inflection point of 4 parameter logistic fit; acetylcholine added at 20% of maximum response; read-out: M4PAM IP
Outline: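 CHO-K1 cells were loaded with calcium dye at 37 °C for ~1 h. Fluorescence (ex 470–495/em 515–575 nm) was read for 4 min after test compound at increasing concentrations, then 3.5 min after acetylcholine at an EC20; sometimes a third addition at EC70 followed. The value is the inflection point of a 4-parameter logistic fit.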

| Compound | EC50 [nM] |
| --- | --- |
| CC(C)(C)Cn1cc(-c2ccc(C#N)nc2-c2ccc3cnnn3c2)cn1 [Example 84, 5-[1-(2,2-dimethylpropyl)-1H-pyrazol-4-yl]-6-[1,2,3]triazolo[1,5-a]pyridin-6-ylpyridine-2-carbonitrile] | 235 |
| COc1ccc(-c2cnn(CC(C)(C)C)c2)c(-c2ccn3cc(C)nc3c2)n1 [Example 85, 7-{3-[1-(2,2-dimethylpropyl)-1H-pyrazol-4-yl]-6-methoxypyridin-2-yl}-2-methylimidazo[1,2-a]pyridine] | 149 |
| Cc1cn2ccc(-c3ncccc3-c3cnn(CC(C)(C)C)c3)cc2n1 [Example 87, 7-{3-[1-(2,2-dimethylpropyl)-1H-pyrazol-4-yl]pyridin-2-yl}-2-methylimidazo[1,2-a]pyridine] | 121 |
| Cc1cn2ncc(-c3nc(C#N)ccc3-c3cnn(CC(C)(C)C)c3)cc2n1 [Example 88, 5-[1-(2,2-dimethylpropyl)-1H-pyrazol-4-yl]-6-(2-methylimidazo[1,2-b]pyridazin-7-yl)pyridine-2-carbonitrile] | 68.7 |
| Cc1nc2cc(-c3nc(C#N)ccc3-c3cnn(CC(C)(C)C)c3)cnc2n1C [Example 89, 6-(2,3-dimethyl-3H-imidazo[4,5-b]pyridin-6-yl)-5-[1-(2,2-dimethylpropyl)-1H-pyrazol-4-yl]pyridine-2-carbonitrile] | 116 |
| Cc1cn2ccc(-c3nc(C#N)ccc3-c3cnn(CC(O)C(C)C)c3)cc2n1 (centres unmarked) [Example 90, 5-[1-(2-hydroxy-3-methylbutyl)-1H-pyrazol-4-yl]-6-(2-methylimidazo[1,2-a]pyridin-7-yl)pyridine-2-carbonitrile] | 92.2 |
| CCC(C)(C)Cn1cc(-c2ccc(C#N)nc2-c2ccn3ccnc3c2)cn1 [Example 91, 5-[1-(2,2-dimethylbutyl)-1H-pyrazol-4-yl]-6-imidazo[1,2-a]pyridin-7-ylpyridine-2-carbonitrile] | 17.1 |
| N#Cc1ccc(-c2cnn(CC3CCC3)c2)c(-c2ccn3ccnc3c2)n1 [Example 93, 5-[1-(cyclobutylmethyl)-1H-pyrazol-4-yl]-6-imidazo[1,2-a]pyridin-7-ylpyridine-2-carbonitrile] | 27.5 |
| CC1(Cn2cc(-c3ccc(C#N)nc3-c3ccn4ccnc4c3)cn2)CCC1 [Example 94, 6-imidazo[1,2-a]pyridin-7-yl-5-{1-[(1-methylcyclobutyl)methyl]-1H-pyrazol-4-yl}pyridine-2-carbonitrile] | 23.6 |
| Cc1ccc(-c2cnn(CCC(C)C)c2F)c(-c2ccn3ccnc3c2)n1 [Example 95, 7-{3-[5-fluoro-1-(3-methylbutyl)-1H-pyrazol-4-yl]-6-methylpyridin-2-yl}imidazo[1,2-a]pyridine] | 79.9 |
| Cc1ccc(-c2cnn(CC(C)C)c2)c(-c2ccc3c(c2)C(=O)N(C2CC2)C3)n1 [Example 96, 2-cyclopropyl-6-{6-methyl-3-[1-(2-methylpropyl)-1H-pyrazol-4-yl]pyridin-2-yl}-2,3-dihydro-1H-isoindol-1-one] | 197 |
| CN1Cc2ccc(-c3nc(C#N)ccc3-c3cnn(CC(C)(C)C(F)F)c3)cc2C1=O [Example 97, 5-[1-(3,3-difluoro-2,2-dimethylpropyl)-1H-pyrazol-4-yl]-6-(2-methyl-3-oxo-2,3-dihydro-1H-isoindol-5-yl)pyridine-2-carbonitrile] | 45 |
| CC(C)(C)Cn1cc(-c2ccc(C(F)F)nc2-c2ccn3ccnc3c2)cn1 [Example 98, 7-{6-(difluoromethyl)-3-[1-(2,2-dimethylpropyl)-1H-pyrazol-4-yl]pyridin-2-yl}imidazo[1,2-a]pyridine] | 40.8 |
| CC(C)(C)Cn1cc(-c2ccc(C3CC3)nc2-c2ccn3ccnc3c2)cn1 [Example 99, 7-{6-cyclopropyl-3-[1-(2,2-dimethylpropyl)-1H-pyrazol-4-yl]pyridin-2-yl}imidazo[1,2-a]pyridine] | 152 |
| CC(C)(C)Cn1cc(-c2ccc(OC(F)(F)F)nc2-c2ccn3ccnc3c2)cn1 [Example 100, 7-{3-[1-(2,2-dimethylpropyl)-1H-pyrazol-4-yl]-6-(trifluoromethoxy)pyridin-2-yl}imidazo [1,2-a]pyridine] | 211 |
| Cc1nc2cc(-c3nc(C#N)ccc3-c3cnn(CC(C)(C)C(F)(F)F)c3)ccn2n1 [Example 101, 6-(2-methyl[1,2,4]triazolo [1,5-a]pyridin-7-yl)-5-[1-(3,3,3-trifluoro-2,2-dimethylpropyl)-1H-pyrazol-4-yl]pyridine-2-carbonitrile] | 58 |
| Cc1nc2cc(-c3ncccc3-c3cnn(CC(C)(C)C(C)(F)F)c3)ccc2n1C [Example 102, 5-{3-[1-(3,3-difluoro-2,2-dimethylbutyl)-1H-pyrazol-4-yl]pyridin-2-yl}-1,2-dimethyl-1H-benzimidazole] | 113 |
| Cc1nc2cc(-c3ncc(F)cc3-c3cnn(CC(C)(C)C(C)(F)F)c3)ccc2n1C [Example 103, 5-(3-(1-(3,3-difluoro-2,2-dimethylbutyl)-1H-pyrazol-4-yl)-5-fluoropyridin-2-yl)-1,2-dimethyl-1H-benzo[d]imidazole] | 117 |
| COCc1cn2ccc(-c3nc(C#N)ccc3-c3cnn(CC(C)(C)C)c3)cc2n1 [Example 104, 5-[1-(2,2-dimethylpropyl)-1H-pyrazol-4-yl]-6-[2-(methoxymethyl)imidazo[1,2-a]pyridin-7-yl]pyridine-2-carbonitrile] | 44.7 |
| COCc1nc2cc(-c3nc(C#N)ccc3-c3cnn(CC(C)(C)C)c3)ccn2n1 [Example 105, 5-[1-(2,2-dimethylpropyl)-1H-pyrazol-4-yl]-6-[2-(methoxymethyl)[1,2,4]triazolo[1,5-a]pyridin-7-yl]pyridine-2-carbonitrile] | 70.5 |
| Cc1cn2ccc(-c3ncc(F)cc3-c3cnn(CC(C)(C)C(F)F)c3)cc2n1 [Example 106, 7-{3-[1-(3,3-difluoro-2,2-dimethylpropyl)-1H-pyrazol-4-yl]-5-fluoropyridin-2-yl}-2-methylimidazo[1,2-a]pyridine] | 69.5 |
| CC(C)(Cn1cc(-c2ccc(C#N)nc2-c2ccn3ccnc3c2)cn1)C(F)F [Example 107, 5-[1-(3,3-difluoro-2,2-dimethylpropyl)-1H-pyrazol-4-yl]-6-imidazo[1,2-a]pyridin-7-ylpyridine-2-carbonitrile] | 32.1 |
| Cc1ccc(-c2cnn(CC3CC3(C)C)c2)c(-c2ccn3ccnc3c2)n1 (centres unmarked) [Example 109, 7-(3-{1-[(2,2-dimethylcyclopropyl)methyl]-1H-pyrazol-4-yl}-6-methylpyridin-2-yl)imidazo[1,2-a]pyridine] | 75.9 |
| CC(C)CCn1cc(-c2ccc(Cl)nc2-c2ccc3c(c2)C(=O)NC3)cn1 [Example 110, 6-(6-chloro-3-(1-isopentyl-1H-pyrazol-4-yl)pyridin-2-yl)isoindolin-1-one] | 40.2 |
| CC(C)CCn1cc(-c2ccc(Cl)nc2-c2ccc3c(c2)C(=O)N(CC(F)(F)F)C3)cn1 [Example 111, 6-chloro-3-(1-isopentyl-1H-pyrazol-4-yl)-2-(3-oxo-2-(2,2,2-trifluoroethyl)isoindolin-5-yl)pyridin-1-ium] | 40.2 |
| CC(C)CCn1cc(-c2ccc(Cl)nc2-c2ccc3c(c2)C(=O)N(Cc2ccccn2)C3)cn1 [Example 112, 6-{6-chloro-3-[1-(3-methylbutyl)-1H-pyrazol-4-yl]pyridin-2-yl}-2-(pyridin-2-ylmethyl)-2,3-dihydro-1H-isoindol-1-one] | 60.8 |
